Measured values as given in patent publication US20220315632A1, “COMBINATION OF DIETARY PEPTIDES” (DIET4LIFE APS, priority 2019, published 2022).
Ends that are not written are not given here. Peptide text beside a SMILES is read from it.

Key:
murine intestinal cells = murine intestinal cells (Mus musculus, UniProt O88319); experiment: Ca2+ flux / calcium response assay (cell signaling activity) in murine intestinal cells; format: cell-based; settings: FIG. 2, truncation
[1] = test system: human (hIC) intestinal cells; experiment: Ca2+ flux / calcium response assay in human intestinal cells (hIC); format: cell-based; settings: FIG. 2, truncation
Method: Elevation of intracellular calcium level was measured using the fluorescent calcium chelating dye Fluo-4 AM (ThermoFischer Scientific, Denmark). Briefly, cells were grown as a monolayer in 96-well tissue culture plates (Sarstedt, Germany) to near confluence in appropriate growth medium as described in the cell culture section. Prior to the start of the assay, the cells were incubated with 1.5 μM Fluo-4 AM in complete culture media mixed 1:1 with Hank's balanced salt solution (HBSS, ThermoFischer Scientific, Denmark) containing 25 mM HEPES (pH 7.4), 1% BSA (Sigma-Aldrich, Denmark), 2% ink (Soluro GMBH, Germany), 0.01% Pluronic F-127 (Sigma-Aldrich, Denmark) and 1 mM Probenecide (Sigma-Aldrich) for 60 minutes at 37° C.
All test compounds were dissolved in water, and then diluted in 1×HBSS containing 25 mM HEPES (pH 7.4), 1% BSA and 2% ink. Without any removal of excess Fluo-4 AM, test compounds were added directly into the wells and fluorescence were measured using instrument settings for excitation at 488 nm and emission at 525 nm in a microtiter plate reader (SpectraMax M5, Molecular Devices, USA).
Human intestinal cell lines were cultured in McCoy's modified 5A medium supplemented with 10% fetal bovine serum and 1% penicillin/streptomycin/neomycin at 37° C. and 5% CO2 in a humidified incubator.

[2] = Stability of peptides in serum (Fetal Bovine Serum), activity remaining; format: in vitro ADME; settings: octapeptides X-SDKPYIL; fraction of peptide activity left after 10 min of incubation in serum at 37° C.
Method: All peptides were incubated at 10^−5 M with Fetal Bovine Serum (FBS; final concentration of 66.7%) (Sigma Aldrich, Denmark) at 37° C. for 3 hours. The peptide degradation was terminated using 1 M phosphoric acid (final 0.4 M, pH ˜1.2) and neutralized to pH 7.2-7.4 with NaOH before testing activity in intestinal cells. As for small intestine homogenates, a zero degradation control was included for each peptide.
DC7-2, NT, DKPYIL and NT-(8-13) (final concentration of 10^−6 M) were incubated either with FBS or with 270× diluted intestinal homogenate at 37° C. for various time points with shaking. Degradation was stopped with 1 M phosphoric acid and the samples were subsequently neutralized and immediately tested with intestinal cells as described above. Control for zero degradation was included for each peptide as above.
The 20 hexapeptides with systematic N-terminal substitutions (X-KPYIL) (Schafer-N, Denmark) and NT (8-13) was incubated at 10^−6 M in either FBS for 10 minutes or with 270× diluted intestinal homogenate for 30 minutes at 37° C. with shaking. The degradation was stopped with 1 M phosphoric acid. Peptide solutions were neutralized with NaOH (pH 7.2-7.4), diluted and immediately tested for bioactivity using murine intestinal cells. Determination of EC50 for stimulation of cells allowed calculation of recovered peptide. Systematic substitutions of N-terminal amino acids in octapeptide […] and their importance for activity and stability. Sequence, activity and stability of DC7-2 is italicized.

pepsin = experiment: Pepsin degradation (proteolytic digest of meat); settings: present in proteolytic digests
Method: Minced meat is diluted 1-10 times with distilled water, adjusted to pH 1-3 with hydrochloric acid, and incubated with 0.01-10% pepsin (w/w) at 4-40° C. for ½-12 h with adequate mixing. Insoluble material is removed by centrifugation at 100-1000 xg for 3-30 min, and supernatant is neutralized with NaOH. Using sterile conditions, low molecular weight peptides in supernatant are recovered by tangential ultrafiltration at 4-40° C. for ½-12 h, and excess water is evaporated at 25-50° C. for up to 12 h. The concentrated dialysate is tested for bioactivity with cells and used for further purification by HPLC.

mice [3] = settings: mouse, in vivo, ip, 128 mg/kg
Method: Liraglutide reached its maximum inhibition of gastric emptying at doses higher than 3 mg/kg retaining approximately 30% of the phenol red marker solution in the stomach. […] A combination test was designed in which DC7-2 was given at EC50 (3 mg/kg) together with different doses of liraglutide (same as used in dose-response test) (FIG. 17 B). […] This was further supported by the different maximum values observed for liraglutide and DC7-2 alone, respectively.

Swiss-Webster females = experiment: Chronic feed intake, 3-week daily administration; format: in vivo; settings: FIG. 18; liraglutide 3 μg/mouse s.c., DC7-2 1 mg/mouse i.p., sitagliptin 0.025 mg/mouse
Source text: FIG. 18. […] Mice had free access to water and feed in this 3-week study (n=14-18 per group). Significance (P<0.05) is shown as * compared to the corresponding vehicle control.
The effect of DC7-2 alone or in combination with liraglutide on feed intake and body weight was investigated in outbred Swiss-Webster females.

mice [4] = settings: 1 week of daily exposure in mice; cited from earlier work

Sequence of murine intestinal cells (O88319 whole entry, the tested form may be a part): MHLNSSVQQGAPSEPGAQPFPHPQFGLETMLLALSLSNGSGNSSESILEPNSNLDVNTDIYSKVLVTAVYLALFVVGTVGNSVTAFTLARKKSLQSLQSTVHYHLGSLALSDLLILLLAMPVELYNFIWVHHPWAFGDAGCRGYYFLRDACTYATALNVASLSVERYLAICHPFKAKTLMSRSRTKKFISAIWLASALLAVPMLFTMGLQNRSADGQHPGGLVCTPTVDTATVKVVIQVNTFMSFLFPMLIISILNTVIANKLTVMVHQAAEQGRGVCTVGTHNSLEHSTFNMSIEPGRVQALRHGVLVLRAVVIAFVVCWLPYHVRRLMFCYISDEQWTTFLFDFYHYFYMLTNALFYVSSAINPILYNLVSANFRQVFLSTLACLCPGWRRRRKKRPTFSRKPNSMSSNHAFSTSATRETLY

Row | Stability in serum (activity remaining) [2] [fraction] | Compound | other results
1 | 0.0609 | SSDKPYIL [compound 36051] | –
2 | 0.0426 | WSDKPYIL [compound 36054] | –
3 | 0.0742 | QSDKPYIL [compound 36049] | –
4 | 0.0488 | VSDKPYIL [compound 36053] | –
5 | 0.0491 | YSDKPYIL [compound 36055] | –
6 | 0.0535 | TSDKPYIL [compound 36052] | –
7 | 0.0772 | PSDKPYIL [compound 36048] | –
8 | 0.0735 | RSDKPYIL [compound 36050] | –

More lines, now with the values behind:

Row | Compound | Stability in serum (activity remaining) [2] [fraction] | other results
9 | CC[C@H](C)[C@H](NC(=O)[C@H](Cc1ccc(O)cc1)NC(=O)[C@@H]1CCCN1)C(=O)N[C@@H](CC(C)C)C(=O)O [PYIL] (H-PYIL-OH) | – | activity compared with the full sequence ASDKPYIL in mIC (murine intestinal cells): two orders of magnitude lower activity; activity in hIC [1]: no activity
10 | ASDKPYIL [Peptide ID 36036, A SDKPYIL] | – | pepsin degradation (pepsin): resistant to pepsin degradation; inhibition of gastric emptying (mice [3]): ~50%
11 | ISDKPYIL [compound 36043] | 0.0956 | –
12 | ESDKPYIL [compound 36039] | 0.0964 | –
13 | KSDKPYIL [compound 36044] | 0.0527 | –
14 | LSDKPYIL [compound 36045] | 0.0917 | –
15 | ASDKPYIL [compound 36036] | 0.0988 | –
16 | MSDKPYIL [compound 36046] | 0.0762 | –
17 | FSDKPYIL [compound 36040] | 0.0944 | –
18 | N[C@@H](CC(=O)N1CCn2c(nnc2C(F)(F)F)C1)Cc1cc(F)c(F)cc1F [sitagliptin] | – | accumulative feed intake after repeated daily administration (Swiss-Webster females): reduces feed intake
19 | GSDKPYIL [compound 36041] | 0.0912 | –
20 | exendin-4 | – | desensitization of glucose homeostasis (mice [4]): a tendency but not significant difference
21 | NSDKPYIL [compound 36047] | 0.0872 | –
22 | CSDKPYIL [compound 36037] | 0.0963 | –
23 | HSDKPYIL [compound 36042] | 0.0980 | –
24 | DSDKPYIL [compound 36038] | 0.0947 | –
